According to patent publication US4925835A, “Aziridinyl putrescine containing compositions and their uses in treating prostate cancer” (priority 1987, dated 1990):
Like-named read-outs stand apart in the source and are kept apart here.

Columns and labels:
[1] = tested on: PC-3 human prostatic carcinoma cell line; assay: cells; type: cell-based
Description: FIG. 3. Effect of AZP on the growth of PC-3 cells with or without DFMO pretreatment. PC-3 cells (3×10^4) were plated in 60-mm^2 Petri dish in RPMI 1640-10% FCS and allowed to attach overnight. The following day the medium was aspirated and replaced with RPMI 1640, 10% FCS, 100 μM aminoguanidine with or without 1 mm DFMO. Forty-eight h later the medium was aspirated, the dishes were rinsed once with HBSS, and the cells were incubated with RPMI 1640-10% FCS-100 μM aminoguanidine with or without 25 μM AZP for 1 h. Following the 1-h incubation the medium was aspirated, the plates were rinsed twice with HBSS, and the incubation was continued with fresh RPMI 1640-10% FCS-100 μM aminoguanidine. At the indicated times following initial plating the cells were lifted from the plate by trypsinization and were examined for their ability to exclude trypan blue. Total cell counts were obtained with the aid of a hemocytometer, and the completeness of the removal of the cells from the dish was verified by the examination of each dish with the inverted microscope. , control; Δ, DFMO; .circle., AZP; .quadrature., DFMO+AZP. Points, means; bars, SE.
FIG. 4. Dose-effect relationship of AZP on the growth on PC-3 prostatic cancer cells. PC-3 cells (3×10^4) were plated in RPMI 1640-10% FCS in 60-mm^2 Petri dishes and allowed to attach overnight. The following day the medium was aspirated and replaced with RPMI 1640-10% FCS-100 μM aminoguanidine with or without 1 mm DFMO. Forty-eight h later the medium was aspirated, and the cells were rinsed once with HBSS and replaced with RPMI 1640-10% FCS-100 μM aminoguanidine with or without the indicated μM concentrations of AZP. After a 1-h incubation the medium was aspirated, the cells were rinsed twice with HBSS, and the incubation was continued with fresh RPMI 1640-10% FCS-100 μM aminoguanidine. Eight days following plating the cells were lifted from the plates by trypsinization and were counted with the aid of a hemocytometer and expressed as a percentage of control (100% without DFMO, 212±31×10^4; 100% with DFMO pretreatment, 219±25× 10^4 cells, respectively). , DFMO pretreated; .circle., without DFMO.
Assays of cell growth were performed by plating 3×10^4 PC-3 cells in RPMI 1640 medium with 10% FCS and allowing them to attach overnight. The following morning the medium was replaced with incubation medium consisting of RPMI 1640, 10% FCS, 100 μM aminoguanidine, 100 units/ml of penicillin, 100 μg/ml of streptomycin, and 2 mM glutamine, with or without 1 mM difluoromethylornithine. Two days later the medium was aspirated and replaced with or without 1-(4-aminobutyl) aziridine at the designated concentration usually for 1 h or for the designated length of time. Following the 1-h incubation, the medium of all groups was aspirated and the dishes were rinsed with HBSS and replaced with fresh incubation medium. Either daily or 8 days following plating, the Petri dishes were rinsed with HBSS and the cells were lifted from the plate by trypsinization. The dishes were examined for completeness of cell removal by examination with an inverted microscope. The cells were counted with a Zeiss microscope using a hemocytometer. Tumor cell population doubling time was determined by ploting the natural logarithm (ln) of the number of cells versus the days following plating. The slope of this line was determined using the Memorial Sloan-Kettering Cancer Center Clin computer system statistical analysis package. Doubling time (DT) was determined as ln 2/slope=DT. Statistical differences in cell number between groups were determined by Student's t statistic with the aid of the Memorial Sloan-Kettering Cancer Center Clin computer using the statistics program.
^a Thirty thousand PC3 cells were plated in 60mm^2 Petri dishes i
RPMI 164010% FCS. The next day the medium was aspirated and replaced with
RPMI 164010% FCS medium with 100 μM aminoguanidine with or without 1 m
DFMO. Fortyeight h later the medium was aspirated. […]

[2] = tested on: PC-3 cells; assay: Polyamine assays: intracellular polyamine levels by HPLC; type: cell-based, human; settings: PC-3, ±1 mM DFMO 48 h, then ±25 μM AZP 1 h
Description: One h later the medium was aspirated and the cells were rinsed with cold HBSS. Three plates were treated with dilute trypsin to release the cells from the plate and provide a single cell suspension. The viability of the cells and the number of cells per plate were determined by trypan blue exclusion and counting with the aid of a hemocytometer. […] The other three plates were extracted with 0.4N perchloric acid and the polyamines were measured by fluorescence following postcolumn derivatization with o-phthalaldehyde following separation by the reverse phase ion-pair high performance liquid chromatography procedure of Wagner et al., J. Chomatogr., 227: 349-368, 1982.
In Table 2 are listed the values for the triplicate assays of the concentrations of polyamine observed in nontreated cells, cells treated with 1-(4-aminobutyl) aziridine for 1 h, cells pretreated for 48 h with 1 mM difluoromethylornithine and then incubated in drug free medium for 1 h, or cells pretreated for 48 h with difluoromethylornithine, rinsed free of difluoromethylornithine, and then incubated with 25 μM 1-(4-aminobutyl)aziridine for 1 h. All groups had cell viabilities greater than 95% and cell numbers were 4.9±0.6 (SE), 4.9±0.7, 4.8±0.4, and 4.6±0.4×10^6 cells for the control, 1-(4-aminobutyl) aziridine, difluoromethylornithine, and difluoromethylornithine+1-(4-aminobutyl) aziridine groups, respectively. The apparent amount of 1-(4-aminobutyl) aziridine in the difluoromethylornithine-treated cells was 3.7 times that of the 1-(4-aminobutyl) aziridine-only-treated cells. No N^8 -acetylspermidine, acetylputrescine, or cadaverine was detected in any group. A peak was detected at a wavelength of 254 nm in the difluoromethylornithine treatment groups that corresponds to the retention time of decarboxylated S-adenosylmethionine.
^a PC-3 cells were incubated with or without 1 mM DFMO for 48 h. Cell
were then rinsed free of DFMO and incubated for 1 h with 25 μM AZP. Th
cells were washed free of AZP by three rinses of HBSS. With one set of
triplicate plates, the cells were resuspended and counted by hemocytomete
and viability was determined by trypan dye exclusion (viability > 95%).
Another set triplicate plates was extracted with icecold perchloric acid
and filtered and the polyamine concentrations were determined by HPLC.
^b Mean ± SE for a triplicate assay. Histamine is included as a […]

[3] = tested on: normal rat prostate; assay: In vivo antiprostatic activity, prostate wet weight; settings: Copenhagen rats, 14 days; AZP 2 mg/kg/day by intraperitoneal infusion mini-pump, DFMO similar amount orally
Description: 1-(4-aminobutyl) aziridine, difluoromethylornithine, and a combination of 1-(4-aminobutyl) aziridine and difluoromethylornithine were tested in vivo for antiprostatic activity using Copenhagen rats. The normal rat prostate is often used as a model or control for drugs which are suspected of having antiprostatic cancer activity. Sloan, et al., Cancer Chemother. Rep. 59: 185-194 (1975). 1-(4-aminobutyl) aziridine, difluoromethylornithine, and a combination of 1-(4-aminobutyl) aziridine and difluoromethylornithine were administered to twenty-eight (28) Copenhagen rats for 14 days. 1-(4-aminobutyl) aziridine was administered by an infusion mini-pump implanted intraperitoneally.
Difluoromethylornithine was administered orally. The 1-(4-aminobutyl) aziridine was delivered at a rate of 2 mg/kg/day. A similar amount of difluoromethylornithine was administered orally on a daily basis. Before loading the infusion pump, the pH of 1-(4-aminobutyl) aziridine was adjusted to 7.5 with hydrochloric acid. The pump rate was 0.5 u./hr.
The prostates of the twenty-eight (28) subjects were removed, freed of fat and weighed to the nearest milligram.

[4] = tested on: human prostate cancer cell line PC-3; assay: cells; type: cell-based
Description: Aziridinyl putrescine 1-(4-aminobutyl) aziridine was synthesized using the method as described by Piper, et al., J. Med. Chem. 12: 236-243 (1968). Cells of the human prostate cancer cell line PC-3 were used.
10^3 PC-3 human cells were plated in RPMI 1640 with 10% FCS/3 ml in 60 mm^2 petri dishes. The cell plates were incubated either with, or without difluoromethylornithine for 48 hours. This was followed by aspiration, and replacement with a medium containing either no additives, 50 uM 1-(4-aminobutyl) aziridine, 1 mM putrescine, or both 50 uM 1-(4-aminobutyl) aziridine and 1 mM putrescine. The media were aspirated after 1 hour, and replaced with a drug free medium. Incubation continued for 5 days.
*Represents mean number of colonies ± one standard deviation of
triplicate assay. Number in parenthesis is percent of control.

[5] = tested on: uptake of [14C]putrescine into PC-3 cells; type: cell-based, human
Description: FIG. 1. Lineweaver-Burk plot of the uptake of [^14 C]putrescine by DFMO-pretreated cells. The ordinate is expressed as 1/pmol/15 min. The abscissa is expressed as 1 μM concentrations containing from 16 to 1.0 μM [^14 C]putrescine.
Fifty thousand PC-3 cells were plated in 12-well plates and 18 h later the incubation medium was removed and replaced with 1 ml or RPMI 1640 medium containing 25 mM 4-(2-hydroxyethyl)-1-piperazineethansulfonic acid buffer, 100 μM aminoguanidine, and 10% FCS. Forty-eight h later the medium was replaced with medium which contained [^14 C]putrescine in concentrations ranging from 16 to 1.0 μM with or without 5 1M 1-(4-aminobutyl) aziridine. Following incubation at 37° C. for 15 min the [^14 C]putrescine-containing medium was aspirated, and the cells were rinsed rapidly 4 times with HBSS. Following the last rinse, 1.0 ml of a solution of 0.1N NaOH was added and after a 2-h incubation at room temperature a 0.2-ml aliquot was added to 1 ml of 2% glacial acidic acid and 10 ml of Scintiverse 1 scintillation cocktail and the radioactive disintegrations were determined with a Packard Tri-Carb 300 scintillation spectrophotometer. Counting efficiency for ^14 C was 80%. Kinetic analysis of uptake was performed by graphic methods as described by Dixon and Webb, Enzymes, p. 322, New York Academic Press (1959).
In FIG. 1 a Lineweaver-Burk plot of the uptake of [^14 C]-putrescine into the PC-3 cells is presented and was used to determine the Km (intercept x axis) and Vmax (intercept y axis) for putrescine.

[6] = PC-3, 48 h with or without DFMO, then 1 h with 50 uM AZP and/or 1 mM putrescine, 5 days drug free

Compound | Cells per dish on day 8 following plating ([1]; PC-3, 3×10^4 plated, ±1 mM DFMO 48 h, ±25 μM AZP 1 h, mean±SD of triplicates) | Doubling time ([1]; PC-3, 25 μM AZP 1 h or 1 mM DFMO 48 h, mean±SE) | Cell numbers at end of treatment ([2]; SE) | Polyamine levels: Hist (histamine, nonpolyamine control) ([2]; mean ± SE) | Polyamine levels: NaSpm (N-acetylspermine) ([2]; mean ± SE) | Polyamine levels: PUT (putrescine) ([2]; mean ± SE) | Polyamine levels: Spd (spermidine) ([2]; mean ± SE) | Polyamine levels: Spm (spermine) ([2]; mean ± SE) | Dorsal Lateral Prostate, milligram wet weight (SEM) [3] | Ventral Prostate, milligram wet weight (SEM) [3] | Inhibition of proliferation of human prostate cancer cells in culture ([4]; AZP at 50 uM, from Table 1) | Clonogenic survivors (mean number of colonies ± one standard deviation) [4, 6] | Clonogenic survivors, percent of control [4, 6] | Cell no. [1] | Growth-inhibitory activity toward PC-3 cells (in words) [1] | Cell no. as a percentage of control ([1]; pc-3 cells, 11520 min) | Km [5] | Vmax of putrescine uptake [5] | Vmax of putrescine uptake ([5]; PC-3 cells, without difluoromethylornithine pretreatment)
NCCCC(N)(C(=O)O)C(F)F (stereo not shown) [DFMO, difluoromethylornithine, reference compound] | 340±54 ×10^4 cells per dish | 1.14 ± 0.05 days | 4.8±0.4 ×10^6 cells | 98 ± 26 pmol/10^6 | 130 ± 10 pmol/10^6 | 192 ± 34 pmol/10^6 | 171 ± 66 pmol/10^6 | 3046 ± 554 pmol/10^6 | 445 ± 32 milligram | 377 ± 16 milligram | little effect | 549 ± 57 colonies | 94% |  |  |  |  |  | 
NCCCCN [PUT, 1,4-butanediamine, reference compound] |  |  |  |  |  |  |  |  |  |  |  |  |  | 438 ± 16 × 10^-4 | no growth-inhibitory activity | 106% | 2.5 µM | 190 pmol/15 min/10^5 cells | 40 pmol/15 min/10^5 cells
